From ChEMBL document CHEMBL4765432, “Design and synthesis of novel Flavone-based histone deacetylase inhibitors antagonizing activation of STAT3 in breast cancer” (Eur J Med Chem, 2020)
One block for each compound: values may come before it. Activity calls are given as the source filed them. The calls are words filed in the database; no cut-off is given here.

Assays:
[1] = Inhibition of HDAC in human HeLa cell extracts assessed as inhibition of substrate deacetylation using Boc-Lys (q-Ac)-AMC as substrate incubated for 10 mins followed by substrate addition and measured after 30 mins by fluorescence based assay; assay type: tissue-based
[2] = Genotoxicity in Salmonella typhimurium TA98 by Ames test; assay type: toxicity; details: salmonella enterica subsp. enterica serovar typhimurium
MDA-MB-231 [3] = assay: Induction of apoptosis in human MDA-MB-231 cells assessed as necrotic cells at 5 uM incubated for 72 hrs by annexinV-FITC and PI staining based flow cytometry analysis (reference value: 0.330 %); assay type: functional
[4] = molecular target: Signal transducer and activator of transcription 3 (Homo sapiens) (UniProt P40763); assay: Inhibition of STAT3 in human MDA-MB-231 cells assessed as reduction in STAT-3 phosphorylation at 2.5 to 40 uM incubated for 8 hrs by Western blot analysis; assay type: cell-based; details: dose 2.5-40 µM
Chain of Signal transducer and activator of transcription 3 (Homo sapiens) (P40763 whole entry): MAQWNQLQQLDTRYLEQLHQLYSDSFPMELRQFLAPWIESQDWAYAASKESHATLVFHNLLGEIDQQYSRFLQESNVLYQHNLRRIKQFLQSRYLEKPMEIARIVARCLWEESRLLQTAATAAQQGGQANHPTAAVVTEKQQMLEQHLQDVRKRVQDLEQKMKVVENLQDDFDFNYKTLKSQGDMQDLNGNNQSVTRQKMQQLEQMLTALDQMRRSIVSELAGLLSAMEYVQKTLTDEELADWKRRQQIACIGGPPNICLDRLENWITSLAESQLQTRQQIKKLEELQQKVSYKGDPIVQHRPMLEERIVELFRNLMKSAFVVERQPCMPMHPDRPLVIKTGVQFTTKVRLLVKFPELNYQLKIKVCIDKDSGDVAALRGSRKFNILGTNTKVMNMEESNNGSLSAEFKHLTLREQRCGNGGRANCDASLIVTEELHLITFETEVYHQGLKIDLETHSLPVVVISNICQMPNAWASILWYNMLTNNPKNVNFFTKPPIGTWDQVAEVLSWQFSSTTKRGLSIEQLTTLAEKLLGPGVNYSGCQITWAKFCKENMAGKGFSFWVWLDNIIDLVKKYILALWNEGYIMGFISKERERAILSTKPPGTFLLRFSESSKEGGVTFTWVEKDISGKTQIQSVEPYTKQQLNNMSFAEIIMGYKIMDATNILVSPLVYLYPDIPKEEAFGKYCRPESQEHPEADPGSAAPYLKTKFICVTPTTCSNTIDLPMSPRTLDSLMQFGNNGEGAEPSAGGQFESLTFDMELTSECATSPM

MDA-MB-231 [5] = assay: Induction of cell cycle arrest in human MDA-MB-231 cells assessed as G2/M phase accumulation at 2 uM incubated for 24 hrs PI staining based by flow cytometry analysis (reference value: 27.08 %); assay type: functional
T47D = assay: Cytotoxicity against human T47D cells assessed as reduction in cell viability incubated for 48 hrs by MTT assay; assay type: functional, cell-based
[6] = Genotoxicity in Salmonella typhimurium WP2 uvrA (pKM 101) by Ames test; assay type: toxicity; details: salmonella enterica subsp. enterica serovar typhimurium
4T1 [7] = assay: Induction of cell cycle arrest in mouse 4T1 cells assessed as S phase accumulation at 2 uM incubated for 24 hrs by PI staining based flow cytometry analysis (reference value: 19.43 %); assay type: functional
HepG2 = assay: Cytotoxicity against human HepG2 cells assessed as reduction in cell viability incubated for 48 hrs by MTT assay; assay type: functional, cell-based; details: HepG2, 48 h
4T1 [8] = assay: Induction of cell cycle arrest in mouse 4T1 cells assessed as G0/G1 phase accumulation at 2 uM incubated for 24 hrs by PI staining based flow cytometry analysis (reference value: 42.06 %); assay type: functional
MDA-MB-231 [9] = assay: Induction of apoptosis in human MDA-MB-231 cells assessed as viable cells at 5 uM incubated for 72 hrs by annexinV-FITC and PI staining based flow cytometry analysis (reference value: 90.3 %); assay type: functional; details: read-out: Activity
4T1 [10] = assay: Induction of apoptosis in mouse 4T1 cells assessed as necrotic cells at 5 uM incubated for 72 hrs by annexinV-FITC and PI staining based flow cytometry analysis (reference value: 5.00 %); assay type: functional
4T1 [11] = assay: Induction of apoptosis in mouse 4T1 cells assessed as early apoptotic cells at 5 uM incubated for 72 hrs by annexinV-FITC and PI staining based flow cytometry analysis (reference value: 1.65 %); assay type: functional
4T1 [12] = assay: Induction of apoptosis in mouse 4T1 cells implanted in BALB/c mouse assessed as increase in caspase-3 cleavage by immunohistochemistry method; assay type: functional, cell-based
MDA-MB-231 [13] = assay: Induction of apoptosis in human MDA-MB-231 cells assessed as late apoptotic cells at 5 uM incubated for 72 hrs by annexinV-FITC and PI staining based flow cytometry analysis (reference value: 3.79 %); assay type: functional
MDA-MB-231 [14] = assay: Induction of cell cycle arrest in human MDA-MB-231 cells assessed as G0/G1 phase accumulation at 2 uM incubated for 24 hrs by PI staining based flow cytometry analysis (reference value: 29.10 %); assay type: functional
MDA-MB-231 [15] = assay: Induction of cell cycle arrest in human MDA-MB-231 cells assessed as S phase accumulation at 2 uM incubated for 24 hrs by PI staining based flow cytometry analysis (reference value: 43.82 %); assay type: functional
MDA-MB-231 [16] = assay: Induction of apoptosis in human MDA-MB-231 cells xenografted in BALB/c mouse assessed as increase in caspase-3 cleavage by immunohistochemistry method; assay type: functional, cell-based
[17] = Genotoxicity in Salmonella typhimurium TA1535 by Ames test; assay type: toxicity; details: salmonella enterica subsp. enterica serovar typhimurium
4T1 [18] = assay: Induction of apoptosis in mouse 4T1 cells assessed as late apoptotic cells at 5 uM incubated for 72 hrs by annexinV-FITC and PI staining based flow cytometry analysis (reference value: 2.24 %); assay type: functional
4T1 [19] = assay: Induction of apoptosis in mouse 4T1 cells assessed as viable cells at 5 uM incubated for 72 hrs by annexinV-FITC and PI staining based flow cytometry analysis (reference value: 91.1 %); assay type: functional; details: read-out: Activity
MDA-MB-231 [20] = assay: Induction of apoptosis in human MDA-MB-231 cells assessed as early apoptotic cells at 5 uM incubated for 72 hrs by annexinV-FITC and PI staining based flow cytometry analysis (reference value: 5.57 %); assay type: functional
[21] = Genotoxicity in Salmonella typhimurium TA100 by Ames test; assay type: toxicity; details: salmonella enterica subsp. enterica serovar typhimurium
[22] = Genotoxicity in Salmonella typhimurium TA97a by Ames test; assay type: toxicity; details: salmonella enterica subsp. enterica serovar typhimurium
[23] = Genotoxicity in Salmonella typhimurium TA1537 by Ames test; assay type: toxicity; details: salmonella enterica subsp. enterica serovar typhimurium
4T1 [24] = assay: Induction of cell cycle arrest in mouse 4T1 cells assessed as G2/M phase accumulation at 2 uM incubated for 24 hrs by PI staining based flow cytometry analysis (reference value: 38.51 %); assay type: functional
4T1 [25] = assay: Induction of apoptosis in mouse 4T1 cells assessed as necrotic cells at 10 uM incubated for 72 hrs by annexinV-FITC and PI staining based flow cytometry analysis (reference value: 5.00 %); assay type: functional
4T1 [26] = assay: Induction of apoptosis in mouse 4T1 cells assessed as late apoptotic cells at 10 uM incubated for 72 hrs by annexinV-FITC and PI staining based flow cytometry analysis (reference value: 2.24 %); assay type: functional
4T1 [27] = assay: Induction of apoptosis in mouse 4T1 cells assessed as early apoptotic cells at 10 uM incubated for 72 hrs by annexinV-FITC and PI staining based flow cytometry analysis (reference value: 1.65 %); assay type: functional
4T1 [28] = assay: Induction of apoptosis in mouse 4T1 cells assessed as viable cells at 10 uM incubated for 72 hrs by annexinV-FITC and PI staining based flow cytometry analysis (reference value: 91.1 %); assay type: functional; details: read-out: Activity
MDA-MB-231 [29] = assay: Induction of apoptosis in human MDA-MB-231 cells assessed as necrotic cells at 10 uM incubated for 72 hrs by annexinV-FITC and PI staining based flow cytometry analysis (reference value: 0.330 %); assay type: functional
MDA-MB-231 [30] = assay: Induction of apoptosis in human MDA-MB-231 cells assessed as early apoptotic cells at 10 uM incubated for 72 hrs by annexinV-FITC and PI staining based flow cytometry analysis (reference value: 5.57 %); assay type: functional
MDA-MB-231 [31] = assay: Induction of apoptosis in human MDA-MB-231 cells assessed as late apoptotic cells at 10 uM incubated for 72 hrs by annexinV-FITC and PI staining based flow cytometry analysis (reference value: 3.79 %); assay type: functional
MDA-MB-231 [32] = assay: Induction of apoptosis in human MDA-MB-231 cells assessed as viable cells at 10 uM incubated for 72 hrs by annexinV-FITC and PI staining based flow cytometry analysis (reference value: 90.3 %); assay type: functional; details: read-out: Activity
[33] = molecular target: Signal transducer and activator of transcription 3 (Homo sapiens) (UniProt P40763); assay: Inhibition of STAT3 in human MDA-MB-231 cells assessed as reduction in STAT-3 phosphorylation incubated for 8 hrs by Western blot analysis; assay type: cell-based; details: dose 2.5-20 µM
[34] = Toxicity in C57BL/6 mouse assessed death of organism at 50 mg/kg, po observed for 20 days; assay type: organism-based; details: in vivo, 480 h, time 20 day
[35] = Toxicity in C57BL/6 mouse assessed death of organism at 300 mg/kg, ip observed for 24 hrs; assay type: organism-based; details: in vivo

- IC50 [1]: > 10 µM
SMILES: COc1ccc(-c2coc3cc(OCCCCCCC(=O)NO)cc(O)c3c2=O)cc1

- IC50 [1]: 0.93 µM
SMILES: O=C(CCCCCCOc1cc(O)c2c(=O)cc(-c3ccc(O)cc3)oc2c1)NO

- IC50 [1]: 0.133 µM
SMILES: O=C(CCCCCOc1cc(O)c2c(=O)cc(-c3ccc(OCCN4CCCCC4)cc3)oc2c1)NO

- IC50 [1]: 0.025 µM
SMILES: CN(C)CCCOc1ccc(-c2cc(=O)c3c(O)cc(OCCCCCCC(=O)NO)cc3o2)cc1

- inhibition [4]: inactive
SMILES: O=C(CCCCCCC(=O)Nc1ccccc1)NO [VORINOSTAT]
- Activity [2]: Non-Toxic
- Activity (MDA-MB-231 [3]): 0.356%
- Activity (MDA-MB-231 [5]): 18.69%
- IC50 (T47D): 2.24 µM
- Activity [6]: Non-Toxic
- Activity (4T1 [7]): 23.63%
- IC50 (HepG2): 2.27 µM
- Activity (4T1 [8]): 53.69%
- viability at 5 µM (MDA-MB-231 [9]): 53.8%
- Activity (4T1 [10]): 2.08%
- Activity (4T1 [11]): 48.9%
- Activity (4T1 [12]): Active
- Activity (MDA-MB-231 [13]): 25.8%
- Activity (MDA-MB-231 [14]): 72.99%
- Activity (MDA-MB-231 [15]): 8.32%
- Activity (MDA-MB-231 [16]): Active
- Activity [17]: Non-Toxic
- Activity (4T1 [18]): 13.4%
- viability at 5 µM (4T1 [19]): 35.6%
- Activity (MDA-MB-231 [20]): 20.1%
- Activity [21]: Toxic
- Activity [22]: Toxic
- Activity [23]: Non-Toxic
- Activity (4T1 [24]): 22.68%

- IC50 [1]: > 10 µM
SMILES: COc1ccc(-c2coc3cc(OCCCCCCC(=O)NO)ccc3c2=O)cc1

- IC50 [1]: 0.732 µM
SMILES: CN(C)CCOc1ccc(-c2cc(=O)c3c(O)cc(OCCCCCCC(=O)NO)cc3o2)cc1

- IC50 [1]: > 10 µM
SMILES: O=c1cc(-c2ccc(O)cc2)oc2cc(O)cc(O)c12 [APIGENIN]
- Activity (4T1 [25]): 4.45%
- Activity (4T1 [26]): 3.22%
- Activity (4T1 [27]): 3.22%
- viability at 10 µM (4T1 [28]): 89.1%
- Activity (MDA-MB-231 [29]): 0.02%
- Activity (MDA-MB-231 [30]): 8.28%
- Activity (MDA-MB-231 [31]): 1.59%
- viability at 10 µM (MDA-MB-231 [32]): 90.1%

- IC50 [1]: 0.402 µM
SMILES: O=C(CCCCCCCOc1cc(O)c2c(=O)cc(-c3ccccc3)oc2c1)NO

- IC50 [1]: 0.053 µM
SMILES: CN(C)CCCOc1ccc(-c2cc(=O)c3c(O)cc(OCCCCCCCC(=O)NO)cc3o2)cc1

- IC50 [1]: 0.053 µM
SMILES: O=C(CCCCCOc1cc(O)c2c(=O)cc(-c3ccccc3)oc2c1)NO

- IC50 [1]: 4530 µM
SMILES: COc1ccc(-c2cc(=O)c3c(O)cc(OCCCCCC(=O)NO)cc3o2)cc1

- IC50 [1]: > 10 µM
SMILES: COc1ccc(-c2coc3cc(OCCCCCCCC(=O)NO)ccc3c2=O)cc1

- IC50 [1]: 0.615 µM
SMILES: O=C(CCCCCCCOc1cc(O)c2c(=O)cc(-c3ccc(O)cc3)oc2c1)NO

- IC50 [1]: > 10 µM
SMILES: O=C(COc1cc(O)c2c(=O)cc(-c3ccccc3)oc2c1)NO

- inhibition [4]: Active
SMILES: COC(=O)CCCCCOc1cc(O)c2c(=O)cc(-c3ccc(OCCN(C)C)cc3)oc2c1

- IC50 [1]: 5.25 µM
SMILES: COc1ccc(-c2cc(=O)c3c(O)cc(OCCCCCCC(=O)NO)cc3o2)cc1

- IC50 [1]: > 10 µM
SMILES: O=C(CCCOc1cc(O)c2c(=O)cc(-c3ccccc3)oc2c1)NO

- IC50 [1]: 3.33 µM
SMILES: O=C(CCCCOc1cc(O)c2c(=O)cc(-c3ccccc3)oc2c1)NO

- IC50 [1]: > 10 µM
SMILES: COc1ccc(-c2cc(=O)c3c(O)cc(OCCCCCCCC(=O)NO)cc3o2)cc1

- IC50 [1]: 0.225 µM
SMILES: CN1CCN(CCOc2ccc(-c3cc(=O)c4c(O)cc(OCCCCCC(=O)NO)cc4o3)cc2)CC1

- IC50 [1]: 0.297 µM
SMILES: O=C(CCCCCOc1cc(O)c2c(=O)cc(-c3ccc(O)cc3)oc2c1)NO

- IC50 [1]: 0.71 µM
SMILES: COc1ccc(-c2coc3cc(OCCCCCC(=O)NO)ccc3c2=O)cc1

- IC50 [1]: 1.68 µM
SMILES: CN(C)CCOc1ccc(-c2cc(=O)c3c(O)cc(OCCCCCCCC(=O)NO)cc3o2)cc1

- IC50 [1]: > 10 µM
SMILES: COc1ccc(-c2coc3cc(OCCCCCCCC(=O)NO)cc(O)c3c2=O)cc1

- IC50 [1]: > 10 µM
SMILES: O=C(CCCCCOc1cc(O)c2c(=O)cc(-c3ccc(OCCN4CCCC4)cc3)oc2c1)NO

- IC50 [1]: 0.59 µM
SMILES: O=C(CCCCCOc1cc(O)c2c(=O)cc(-c3ccc(OCCN4CCOCC4)cc3)oc2c1)NO

- IC50 [1]: 0.088 µM
SMILES: O=C(CCCCCCOc1cc(O)c2c(=O)cc(-c3ccccc3)oc2c1)NO

- IC50 [1]: > 10 µM
SMILES: COc1ccc(-c2coc3cc(OCCCCCC(=O)NO)cc(O)c3c2=O)cc1

SMILES: CN(C)CCCOc1ccc(-c2cc(=O)c3c(O)cc(OCCCCCC(=O)NO)cc3o2)cc1.Cl
- inhibition [33]: Dose-dependent effect
- Activity [34]: Toxic
- Activity [35]: Toxic
- IC50 [1]: 0.065 µM
